Target: T1, Met kinase (Homo sapiens, UniProt P08581)
T1 construct: 6His (N); purchased Upstate 14-526; host or cells: Sf21 insect cells (S. frugiperda), baculovirus
Experiment: Met kinase inhibition (enzyme assay), flashplate method
Type: biochemical
Excerpt: According to the manufacturer's data (Met, active, Upstate, catalogue No. 14-526), Met kinase is expressed for the purposes of protein production in insect cells (Sf21; S. frugiperda) and subsequent affinity-chromatographic purification as “N-terminal 6His-tagged” recombinant human protein in a baculovirus expression vector.
Flashplate Method (Met Kinase)
The test plates used are 96-well Flashplate^R microtitre plates from Perkin Elmer (Cat. No. SMP200). The components of the kinase reaction described below are pipetted into the assay plate. The Met kinase and the substrate poly Ala-Glu-Lys-Tyr, (pAGLT, 6:2:5:1), are incubated for 3 hrs at room temperature with radioactively labelled ^33P-ATP in the presence and absence of test substances in a total volume of 100 μl. The reaction is terminated using 150 μl of a 60 mM EDTA solution. After incubation for a further 30 min at room temperature, the supernatants are filtered off with suction, and the wells are washed three times with 200 μl of 0.9% NaCl solution each time. The measurement of the bound radioactivity is carried out by means of a scintillation measuring instrument (Topcount NXT, Perkin-Elmer).
The full value used is the inhibitor-free kinase reaction. This should be approximately in the range 6000-9000 cpm. The pharmacological zero value used is staurosporin in a final concentration of 0.1 mM. The inhibitory values (IC50) are determined using the RS1_MTS program.
Kinase reaction conditions per well: • 30 μl of assay buffer • 10 μl of substance to be tested in assay buffer with 10% of DMSO • 10 μl of ATP (final concentration 1 μM cold, 0.35 μCi of ^33P-ATP) • 50 μl of Met kinase/substrate mixture in assay buffer; • (10 ng of enzyme/well, 50 ng of pAGLT/well)
Solutions Used: • Assay buffer: • 50 mM HEPES • 3 mM magnesium chloride • 3 μM sodium orthovanadate • 3 mM manganese(II) chloride • 1 mM dithiothreitol (DTT) • pH=7.5 (to be set using sodium hydroxide) • Stop solution: • 60 mM Titriplex III (EDTA) • ^33P-ATP: Perkin-Elmer; • Met kinase: Upstate, Cat. No. 14-526, Stock 1 μg/10 μl; spec. activity 954 U/mg; • Poly-Ala-Glu-Lys-Tyr, 6:2:5:1: Sigma Cat. No. P1152

T1 sequence (P08581 25-1390): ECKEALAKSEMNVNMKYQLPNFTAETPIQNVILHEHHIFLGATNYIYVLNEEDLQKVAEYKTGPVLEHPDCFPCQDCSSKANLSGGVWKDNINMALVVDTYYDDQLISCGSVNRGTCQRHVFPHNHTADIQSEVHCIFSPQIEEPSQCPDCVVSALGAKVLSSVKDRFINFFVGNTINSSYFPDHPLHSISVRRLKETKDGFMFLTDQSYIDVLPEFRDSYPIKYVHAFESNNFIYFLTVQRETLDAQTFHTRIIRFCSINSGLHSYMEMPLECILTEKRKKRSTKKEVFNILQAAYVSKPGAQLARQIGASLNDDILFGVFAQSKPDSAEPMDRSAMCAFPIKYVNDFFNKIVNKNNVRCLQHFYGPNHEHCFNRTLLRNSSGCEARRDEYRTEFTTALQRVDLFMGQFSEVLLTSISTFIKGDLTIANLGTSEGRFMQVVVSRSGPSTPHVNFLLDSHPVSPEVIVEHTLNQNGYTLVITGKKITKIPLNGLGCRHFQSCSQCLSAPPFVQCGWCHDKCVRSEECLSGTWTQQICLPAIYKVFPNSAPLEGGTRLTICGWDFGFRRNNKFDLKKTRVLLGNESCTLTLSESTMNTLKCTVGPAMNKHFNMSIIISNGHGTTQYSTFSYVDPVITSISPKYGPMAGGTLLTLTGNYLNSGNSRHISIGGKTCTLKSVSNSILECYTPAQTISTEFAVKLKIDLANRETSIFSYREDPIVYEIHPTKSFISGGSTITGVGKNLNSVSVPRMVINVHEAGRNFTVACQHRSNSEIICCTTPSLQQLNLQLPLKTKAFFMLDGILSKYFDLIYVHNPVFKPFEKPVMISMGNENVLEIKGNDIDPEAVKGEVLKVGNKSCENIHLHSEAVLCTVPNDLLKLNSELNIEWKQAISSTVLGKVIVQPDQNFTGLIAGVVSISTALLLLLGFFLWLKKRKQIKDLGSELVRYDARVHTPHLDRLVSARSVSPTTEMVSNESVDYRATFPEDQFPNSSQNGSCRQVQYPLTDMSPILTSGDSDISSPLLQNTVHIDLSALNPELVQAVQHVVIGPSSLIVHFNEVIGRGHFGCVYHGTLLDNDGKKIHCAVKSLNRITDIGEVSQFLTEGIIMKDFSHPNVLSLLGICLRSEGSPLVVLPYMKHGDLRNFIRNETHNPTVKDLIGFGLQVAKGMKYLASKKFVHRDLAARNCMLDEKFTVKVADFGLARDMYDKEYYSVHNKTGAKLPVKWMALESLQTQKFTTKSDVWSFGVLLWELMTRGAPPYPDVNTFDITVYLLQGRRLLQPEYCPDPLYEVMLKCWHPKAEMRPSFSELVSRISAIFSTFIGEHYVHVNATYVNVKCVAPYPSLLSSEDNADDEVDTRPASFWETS

| IC50 [µM] | Compound |
| --- | --- |
| 0.01 to 1 | O=c1sc2ccc(C(F)(F)F)cc2n1Cc1cccc(-c2ncc(OCCN3CCOCC3)cn2)c1 [Compound A1, 3-{3-[5-(2-morpholin-4-ylethoxy)pyrimidin-2-yl]benzyl}-5-trifluoromethyl-3H-benzothiazol-2-one] |
| 0.01 to 1 | O=c1sc2ccc(Cl)cc2n1Cc1cccc(-c2ncc(OCCN3CCOCC3)cn2)c1 [Compound A2, 5-Chloro-3-{3-[5-(2-morpholin-4-ylethoxy)pyrimidin-2-yl]benzyl}-3H-benzothiazol-2-one] |
| 0.01 to 1 | CC(=O)c1ccc2c(c1)sc(=O)n2Cc1cccc(-c2ncc(OCCN3CCOCC3)cn2)c1 [Compound A3, 6-Acetyl-3-{3-[5-(2-morpholin-4-ylethoxy)pyrimidin-2-yl]benzyl}-3H-benzothiazol-2-one] |
| 0.01 to 1 | CCC(=O)c1ccc2c(c1)sc(=O)n2Cc1cccc(-c2ncc(OCCN3CCOCC3)cn2)c1 [Compound A3a, 3-{3-[5-(2-Morpholin-4-ylethoxy)pyrimidin-2-yl]benzyl}-6-propionyl-3H-benzothiazol-2-one] |
| 0.01 to 1 | O=c1sc2ccc(Br)cc2n1Cc1cccc(-c2ncc(OCCN3CCOCC3)cn2)c1 [Compound A4, 5-Bromo-3-{3-[5-(2-morpholin-4-ylethoxy)pyrimidin-2-yl]benzyl}-3H-benzothiazol-2-one] |
| 0.01 to 1 | CN(C)CCCOc1cnc(-c2cccc(Cn3c(=O)sc4ccc(C(F)(F)F)cc43)c2)nc1 [Compound A5, 3-{3-[5-(3-dimethylaminopropoxy)pyrimidin-2-yl]benzyl}-5-trifluoromethyl-3H-benzothiazol-2-one] |
| 0.01 to 1 | CN1CCC(COc2cnc(-c3cccc(Cn4c(=O)sc5ccc(C(F)(F)F)cc54)c3)nc2)CC1 [Compound A6, 3-{3-[5-(1-Methylpiperidin-4-ylmethoxy)pyrimidin-2-yl]benzyl}-5-trifluoromethyl-3H-benzothiazol-2-one] |
| 0.01 to 1 | O=c1sc2ccc(C(F)(F)F)cc2n1Cc1cccc(-c2ncc(OCC3CCNCC3)cn2)c1 [Compound A8, 3-{3-[5-(piperidin-4-ylmethoxy)pyrimidin-2-yl]benzyl}-5-trifluoromethyl-3H-benzothiazol-2-one] |
| 0.01 to 1 | O=c1sc2ccc(C(F)(F)F)cc2n1Cc1cccc(-c2ncc(-c3cnn(CCN4CCCC4)c3)cn2)c1 [Compound A9, 3-(3-{5-[1-(2-pyrrolidin-1-ylethyl)-1H-pyrazol-4-yl]pyrimidin-2-yl}benzyl)-5-trifluoromethyl-3H-benzothiazol-2-one] |
| 0.01 to 1 | Cn1cc(-c2ccc3sc(=O)n(Cc4cccc(-c5ncc(OCCN6CCOCC6)cn5)c4)c3c2)cn1 [Compound A10, 5-(1-methyl-1H-pyrazol-4-yl)-3-{3-[5-(2-morpholin-4-ylethoxy)pyrimidin-2-yl]benzyl}-3H-benzothiazol-2-one] |
| 0.01 to 1 | CN1CCN(c2cnc(-c3cccc(Cn4c(=O)sc5ccc(C(F)(F)F)cc54)c3)nc2)CC1 [Compound A11, 3-{3-[5-(4-methylpiperazin-1-yl)pyrimidin-2-yl]benzyl}-5-trifluoromethyl-3H-benzothiazol-2-one] |
| 0.01 to 1 | Cc1nc(-c2cccc(Cn3c(=O)sc4ccc(Cl)cc43)c2)no1 [Compound A12, 5-chloro-3-[3-(5-methyl-1,2,4-oxadiazol-3-yl)benzyl]-3H-benzothiazol-2-one] |
| 0.01 to 1 | CN1CCN(CCCOC(=O)Nc2cccc(Cn3c(=O)sc4ccc(Cl)cc43)c2)CC1 [Compound A13, 3-(4-methylpiperazin-1-yl)propyl [3-(5-chloro-2-oxobenzothiazol-3-ylmethyl)phenyl]carbamate] |
| 0.01 to 1 | CCOC(=O)Nc1cccc(Cn2c(=O)sc3ccc(Cl)cc32)c1 [Compound A14, ethyl [3-(5-chloro-2-oxobenzothiazol-3-ylmethyl)phenyl]carbamate] |

| Compound | IC50 [µM] |
| --- | --- |
| CC(C)(C)OC(=O)N1CCC(COc2cnc(-c3cccc(Cn4c(=O)sc5ccc(C(F)(F)F)cc54)c3)nc2)CC1 [Compound A7, 3-{3-[5-(1-tert-Butoxycarbonylpiperidin-4-ylmethoxy)pyrimidin-2-yl]-benzyl}-5-trifluoromethyl-3H-benzothiazol-2-one] | 0.01 to 1 |
